We go through 2 compounds from patent US20170290820A1, “METHODS AND COMPOSITIONS FOR TREATING BETA-THALASSEMIA AND SICKLE CELL DISEASE” (Academia Sinica, priority 2013, published 2017).

The nature of series [1]: solubility in DMSO and H2O. It counts as physicochemical. The settings on record: water; H2O; read-out: solubility H2O.
A further series has as its system NF-E4. Put plainly: NF-E4 mRNA level by relative quantitative RT-PCR. The series is classed as cell-based, human. The settings on record: FIG. 4A; at IC50, 3 days, relative to mock. The method, then: (§1) FIGS. 4A-4D are graphs showing the expression profiles of the γ globin gene and HbF-related regulators after compounds treatment in the primary human erthroid cells. […] Data are presented as the relative expression level in mean±SEM, N=8. […] Upper panel: For detection of the induction level of γ globin, fifty microgram of total cell lysate was analyzed by western blot analysis using antibody against γ globin, or β-actin. Lower panel: The signal intensity was quantified by an image-analyzing software. The intensity of γ globin expression levels of mock control was set as 1. Data are shown as the mean±SEM, N=5. […] Lower panel: The signal was quantified by an image-analyzing software. […] Total RNA was extracted, and the expression level of γ globin gene was analyzed by relative quantitative RT-PCR. […]
(§2) After 3 days of drug-treatment, the total RNA was extracted by RNA Spin mini kit (Ge-Healthcare) and reverse-transcription was performed by using superscript II (Invitrogen) followed the manufactors instruction. Quantitative PCR was performed on LightCycler with using STBR green master mix followed the manufactors instruction (Roche). The absolute quantitative RT-PCR was calculated by the standard curve with supplying a known copy number of plasmids. The relative quantitative RT-PCR was normalized to the expression levels of the β-actin and compared to the mock control. […]

In another series the test system is ε globin. Put plainly: absolute quantitative RT-PCR, proportion of ε globin mRNA. The series is classed as cell-based. The settings on record: primary human erythroid cells, at IC50, 3 days; mock 0.0%. The procedure:
After 3 days of drug-treatment, the total RNA was extracted by RNA Spin mini kit (Ge-Healthcare) and reverse-transcription was performed by using superscript II (Invitrogen) followed the manufactors instruction. Quantitative PCR was performed on LightCycler with using STBR green master mix followed the manufactors instruction (Roche). The absolute quantitative RT-PCR was calculated by the standard curve with supplying a known copy number of plasmids. The relative quantitative RT-PCR was normalized to the expression levels of the β-actin and compared to the mock control.
To evaluate the specificity of S51021, SS-2394, HU, and NaB in mediating globin genes activation, the amounts of individual P3-liked globin mRNAs were measured by absolute quantitative RT-PCR.
The primary human erythroid cells were treated with HU (145.9 μM), NaB (221.6 μM), S51021 (21.8 μM) or SS2394 (2.3 μM) for 3 days, and the expression levels of each globin mRNA were estimated by absolute quantitative RT-PCR analysis. The proportions of individual 3-like globin chains among the total 3-like globin mRNA are shown. Data are presented as the mean±SEM, N=3.

For series [2], the system named is BCL11A. Put plainly: BCL11A protein by western blot. The series is classed as cell-based, human. The settings on record: FIG. 4C, at IC50, 3 days. The method, then: FIGS. 4A-4D are graphs showing the expression profiles of the γ globin gene and HbF-related regulators after compounds treatment in the primary human erthroid cells. […] Data are presented as the relative expression level in mean±SEM, N=8. […] Upper panel: For detection of the induction level of γ globin, fifty microgram of total cell lysate was analyzed by western blot analysis using antibody against γ globin, or β-actin. Lower panel: The signal intensity was quantified by an image-analyzing software. The intensity of γ globin expression levels of mock control was set as 1. Data are shown as the mean±SEM, N=5. […] Upper panel: For detection of the expression level of BCL11A, thirty microgram of total protein was separated by SDS-PAGE electrophoresis, transferred to PVDF membrane, and immunobloted with antibody against BCL11A and β-actin. Lower panel: The signal was quantified by an image-analyzing software. The intensity of the mock control BCL11A levels were set as 1. Data are shown as the mean±SEM, N=5. FIG. 4D is a graph showing that the HU-nonresponding primary human erythroid cells were treated with HU (145.9 μM), NaB (221.6 μM), S51021 (21.8 μM) or SS-2394 (2.3 μM) for 3 days. Total RNA was extracted, and the expression level of γ globin gene was analyzed by relative quantitative RT-PCR. Data are shown as the mean±SEM, N=3. […]

Series [3] deals with BCL11A. Put plainly: BCL11A mRNA level by relative quantitative RT-PCR. The series is classed as cell-based, human. Conditions: FIG. 4A; at IC50, 3 days, relative to mock. The procedure:
as §1, §2

A value given as a limit tells only on which side of the number the result lay.

With `NC(=O)NO` [HU, hydroxyurea], the solubility in series [1] was greater than 100 mM. The “expression level of NF-E4” value in the series with NF-E4 is recorded as 0.6 folds. Moreover, in the series on ε globin, the “ε globin proportion of total β-like globin mRNA” value came out at 0.1 ± 0.0%.
For the compound `CCCC(=O)[O-].[Na+]` [NaB, sodium butyrate], in the series with BCL11A [2], the BCL11A protein entry is given as “significant reduction”. In the series with NF-E4, the “expression level of NF-E4” value worked out at 0.6 folds. Besides, the “ε globin proportion of total β-like globin mRNA” value with ε globin is listed as 0.1 ± 0.0%. Further, the “expression level of BCL11A mRNA” value with BCL11A [3] is 0.6 folds.
